#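 Where inhibition never reached the appropriate level, the endpoint shown equals the highest concentration tested. Otherwise, values were interpolated linearly from a five-concentration, 48-hour dose response in 96-well plates. TGI: total growth inhibition.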
# Legend:
# Assay in all cases: inhibition of tumour cell growth, NCI panel, 48 h
# [1] = test system: BT-549 breast
# [2] = test system: NCI/ADR-RES ovarian
# [3] = test system: NCI-H226 lung
# [4] = test system: U251 CNS
# [5] = test system: MDA-MB-435
# [6] = test system: OVCAR-4 ovarian
# [7] = test system: SK-MEL-5 melanoma
# [8] = test system: A549 NSCLC
# [9] = test system: SNB-75 CNS
# [10] = test system: SK-MEL-2 melanoma
# [11] = test system: T-47D breast
# [12] = test system: EKVX NSCLC
# [13] = test system: NCI-H460 lung
# [14] = test system: HCC-2998 colon
Structure (SMILES),TGI [1] [µM],TGI [2] [µM],TGI [3] [µM],TGI [4] [µM],TGI [5] [µM],TGI [6] [µM],TGI [7] [µM],TGI [8] [µM],TGI [9] [µM],TGI [10] [µM],TGI [11] [µM],TGI [12] [µM],TGI [13] [µM],TGI [14] [µM]
CCCCn1c(CSc2ccc(Cl)cc2)c(C(=O)OCC)c2cc(OC)c(Br)cc21,> 100,> 100,> 100,> 100,> 100,> 100,> 100,> 100,> 100,> 100,> 100,> 100,> 100,> 100
Cc1ccc(C2(c3ccc(Cl)cc3)c3ccccc3C3=NCCN32)cc1 (configuration not stated),25.9,24.9,35.6,29,10.1,16.9,23.2,25.3,24.9,28,39.2,28.9,20.7,18.8
COc1ccc([N+](=O)[O-])c2c(NCCCN(C)C)ccnc12,6.45,42.2,30.2,23.6,23.1,3.69,5.22,23.8,15.8,4.48,29,22.8,5.63,6.95
COc1ccc(/C=C/C(=O)/C=C/c2ccc(OC)cc2OC)c(OC)c1,48,91.4,37.6,23.4,8.24,46.3,16.9,46.3,45.1,13.1,> 100,33.3,24,13.3
CCOC(=O)c1cc(-n2nnc3ccccc32)cn1C,> 10,> 10,> 10,> 10,> 10,> 10,> 10,> 10,> 10,> 10,> 10,> 10,> 10,> 10
CC(Oc1ccccc1Cl)C(=O)NN1C(=O)CC(=O)N(c2ccccc2)C1=S (configuration not stated),> 100,> 100,> 100,> 100,> 100,> 100,> 100,> 100,> 100,> 100,> 100,> 100,> 100,> 100
CCCCCCCCCCCC(=O)OC[C@H](C[As](=O)(O)O)OC(=O)CCCCCCCCCCC,11.3,29.3,38.8,5.15,9.5,37.7,4.54,20.5,24.7,6.48,47.2,25.6,16.9,22.4
Clc1cc2nn(C3CCCCO3)nc2cc1Cl (configuration not stated),> 100,> 100,> 100,> 100,> 100,> 100,> 100,> 100,> 100,> 100,> 100,> 100,> 100,> 100
